Earlier results in patent US20020086849A1, “Method for introducing antisense oligonucleotides into eucaryotic cells” (priority 2000, published 2002).

Conditions: as described in U.S. Pat. No. 5,753,613

CCCCCCCCCCCCCCCCCC[N+](C)(C)CCCCCCCCCCCCCCCCCC.[Br-] [DDAB, dimethyldioctadecylammonium bromide]
transfection efficiency: poor transfection efficiency
